# Measurements taken from ChEMBL document CHEMBL1128598, “Potential anxiolytic agents. Pyrido[1,2-a]benzimidazoles: a new structural class of ligands for the benzodiazepine binding site on GABA-A receptors” (J Med Chem, 1995).
# Legend:
# [1] = target: GABA-A receptor; anion channel; experiment: Binding affinity against benzodiazepine site of gamma-aminobutyric-acid A receptor of rat cerebral cortex by using [3H]flunitrazepam in the presence of GABA 1 mM.; format: tissue-based
# [2] = system: Rattus norvegicus; experiment: Minimum effective dose as dose required to release behavior in suppressed rats by conflict test after intraperitoneal administration.; format: functional; conditions: ip, read-out: MED
# [3] = target: GABA-A receptor; anion channel (Rattus norvegicus) (UniProt O09028+P15431+P18506+P18508+P19969+P20236+P23574+P23576+P28471+P28473+P30191+P62813+P63079+P63138+Q91ZM7+Q9ES14); experiment: GABA shift as the ratio of IC50 (no GABA) to that of IC50 (GABA); GABA shift; format: protein-complex assay
# [4] = target: GABA-A receptor; anion channel; experiment: Binding affinity against benzodiazepine site of gamma-aminobutyric-acid A receptor of rat cerebral cortex by using [3H]flunitrazepam in the absence of GABA.; format: tissue-based
# [5] = system: Mus musculus; experiment: The ability to block the tonic-clonic component of seizures induced by metrazole in mice after intraperitoneal administration.; format: functional; conditions: ip
structure (smiles),measurement,setting,value
CN1C2=C(C(=O)Nc3ccccc3)C(=O)CCN2c2ccccc21,IC50,[1],2.1 nM
same,minimal effective dose,[2],1 mg/kg
same,GS,[3],2.8
same,IC50,[4],5.8 nM
same,ED50,[5],0.13 mg/kg
CN1C2=C(C(=O)Nc3ccccc3F)C(=O)CCN2c2ccccc21,IC50,[1],0.26 nM
same,minimal effective dose,[2],0.03 mg/kg
same,GS,[3],1.6
same,IC50,[4],0.42 nM
same,ED50,[5],0.019 mg/kg
CN(C(=O)C1=C(O)CCn2c1nc1ccccc12)c1ccccc1,IC50,[1],> 10000 nM
same,minimal effective dose,[2],> 10 mg/kg
same,IC50,[4],> 10000 nM
same,ED50,[5],> 10 mg/kg
O=C1CCn2c(nc3ccccc32)/C1=C(\O)Oc1ccccc1,IC50,[1],150 nM
same,minimal effective dose,[2],> 10 mg/kg
same,GS,[3],1.4
same,IC50,[4],200 nM
same,ED50,[5],9.9 mg/kg
O=C(Nc1c(F)cccc1F)C1=C(O)CCn2c1nc1ccccc12,IC50,[1],1.7 nM
same,minimal effective dose,[2],0.1 mg/kg
same,GS,[3],1.6
same,IC50,[4],2.8 nM
same,ED50,[5],0.85 mg/kg
O=C(Nc1c(Cl)cccc1Cl)C1=C(O)CCn2c1nc1ccccc12,IC50,[1],170 nM
same,minimal effective dose,[2],> 10 mg/kg
same,GS,[3],1.9
same,IC50,[4],320 nM
same,ED50,[5],> 30 mg/kg
O=C1CCN2C(=C1C(=O)Nc1ccccc1)Nc1ccccc12,IC50,[1],5.9 nM
same,minimal effective dose,[2],10 mg/kg
same,GS,[3],1.5
same,IC50,[4],9.1 nM
same,ED50,[5],5.2 mg/kg
CCN1C2=C(C(=O)Nc3ccccc3)C(=O)CCN2c2ccccc21,IC50,[1],1.4 nM
same,minimal effective dose,[2],0.3 mg/kg
same,GS,[3],1.6
same,IC50,[4],2.1 nM
same,ED50,[5],0.083 mg/kg
O=C(Nc1ccccc1)c1c(O)ccn2c1nc1ccccc12,IC50,[1],14 nM
same,minimal effective dose,[2],10 mg/kg
same,GS,[3],1.7
same,IC50,[4],24 nM
same,ED50,[5],0.39 mg/kg
NC(=O)C1=C(O)CCn2c1nc1ccccc12,IC50,[1],6000 nM
same,minimal effective dose,[2],10 mg/kg
same,GS,[3],0.4
same,IC50,[4],2400 nM
same,ED50,[5],> 30 mg/kg
O=C1CCn2c(nc3ccccc32)/C1=C(\O)Sc1ccccc1,IC50,[1],26 nM
same,minimal effective dose,[2],> 10 mg/kg
same,GS,[3],1.1
same,IC50,[4],29 nM
same,ED50,[5],> 30 mg/kg
O=C(NC1CC1)C1=C(O)CCn2c1nc1ccccc12,IC50,[1],18 nM
same,minimal effective dose,[2],> 10 mg/kg
same,GS,[3],0.87
same,IC50,[4],16 nM
same,ED50,[5],> 10 mg/kg
COc1ccc(NC(=O)C2=C(O)CCn3c2nc2ccccc23)cc1,IC50,[1],16 nM
same,minimal effective dose,[2],10 mg/kg
same,GS,[3],2.6
same,IC50,[4],41 nM
same,ED50,[5],2 mg/kg
O=C(Nc1ccccc1F)C1=C(O)CCn2c1nc1ccccc12,IC50,[1],1.4 nM
same,minimal effective dose,[2],1 mg/kg
same,GS,[3],1.2
same,IC50,[4],1.7 nM
same,ED50,[5],0.16 mg/kg
COc1ccccc1NC(=O)C1=C(O)CCn2c1nc1ccccc12,IC50,[1],940 nM
same,minimal effective dose,[2],> 10 mg/kg
same,GS,[3],1.1
same,IC50,[4],990 nM
same,ED50,[5],> 10 mg/kg
CN1C(=O)CN=C(c2ccccc2)c2cc(Cl)ccc21 [DIAZEPAM],minimal effective dose,[2],5 mg/kg
same,GS,[3],2.2
same,ED50,[5],0.11 mg/kg
CCO/C(O)=C1\C(=O)CCn2c1nc1ccccc12,IC50,[1],840 nM
same,GS,[3],0.68
same,IC50,[4],675 nM
same,ED50,[5],> 10 mg/kg
COc1cccc(NC(=O)C2=C(O)CCn3c2nc2ccccc23)c1,IC50,[1],16 nM
same,minimal effective dose,[2],5 mg/kg
same,GS,[3],1.6
same,IC50,[4],26 nM
same,ED50,[5],> 10 mg/kg
O=C(Nc1ccccc1F)c1c(O)ccn2c1nc1ccccc12,IC50,[1],0.11 nM
same,minimal effective dose,[2],0.1 mg/kg
same,GS,[3],2.1
same,IC50,[4],0.23 nM
same,ED50,[5],0.088 mg/kg
O=C(NC1CCCCC1)C1=C(O)CCn2c1nc1ccccc12,IC50,[1],72 nM
same,minimal effective dose,[2],10 mg/kg
same,GS,[3],2
same,IC50,[4],140 nM
same,ED50,[5],3 mg/kg
O=C(Nc1ccccc1Cl)C1=C(O)CCn2c1nc1ccccc12,IC50,[1],5.3 nM
same,minimal effective dose,[2],10 mg/kg
same,GS,[3],2.3
same,IC50,[4],12 nM
same,ED50,[5],0.95 mg/kg
O=C(Nc1ccc(Cl)cc1)C1=C(O)CCn2c1nc1ccccc12,IC50,[1],265 nM
same,minimal effective dose,[2],1 mg/kg
same,GS,[3],2.3
same,IC50,[4],620 nM
same,ED50,[5],8.9 mg/kg
O=C(Nc1cccc(Cl)c1)C1=C(O)CCn2c1nc1ccccc12,IC50,[1],95 nM
same,minimal effective dose,[2],> 10 mg/kg
same,GS,[3],1.3
same,IC50,[4],120 nM
same,ED50,[5],> 30 mg/kg
O=C1CCN2C(=C1C(=O)Nc1ccccc1)N(Cc1ccccc1)c1ccccc12,IC50,[1],2.7 nM
same,minimal effective dose,[2],10 mg/kg
same,GS,[3],4.6
same,IC50,[4],12 nM
same,ED50,[5],1.4 mg/kg
O=C(NC1CCC1)C1=C(O)CCn2c1nc1ccccc12,IC50,[1],25 nM
same,minimal effective dose,[2],10 mg/kg
same,GS,[3],1.2
same,IC50,[4],30 nM
same,ED50,[5],> 30 mg/kg
OC1=C(/C(S)=N/c2ccccc2)c2nc3ccccc3n2CC1,IC50,[1],320 nM
same,minimal effective dose,[2],> 10 mg/kg
same,GS,[3],1.1
same,IC50,[4],360 nM
same,ED50,[5],> 10 mg/kg
